# Experiments:
# [1] = test system: human skeletal muscle myotubes; assay: Evaluation of the muscle-relaxant effect (Test 2), contractile activity of myotubes stimulated with carbacol; assay type: cell-based; settings: myotubes with carbacol 3 mM, FIG. 5A; at least partly restored during washing
# Protocol: The myoblasts were differentiated into myotubes in differentiation medium (DMEM: F12, with the addition of 2% of horse serum). The differentiated myotubes were used for the experiments from the fourth to the seventh day of maintenance in differentiation medium.
# For the evaluation of the muscle-relaxant effect of MILESAX, human myoblasts were seeded onto microscope slides and, once they had reached at least about 70% confluence, they were maintained in differentiation medium for 4-7 days before being used for the experiments. The contractile activity of the myotubes was recorded with a TCS SP5 confocal microscope (Leica Microsystems) in transmitted-light mode with the 40× objective lens (HCX PL APO, 1.25 NA, Leica Microsystems) using the incubator associated with the microscope to maintain the cells under a controlled atmosphere (37° C., 5% CO2). […]
# Not all the myotubes in the culture were capable of contracting, and similarly it was never possible to observe spontaneous contractions only in differentiation medium. […] The contractile activity of the identified active cell(s) was recorded with a confocal microscope in transmitted light, with an image acquired every 151 ms. […]
# THP-1 cells = settings: positive controls at 100 μM
# Excerpt: The absorbance measured correlates directly with the number of live cells.
# [2] = test system: IL-1β release from differentiated THP-1 monocytes; assay: ELISA test (Test 1), release of IL-1β into culture medium; assay type: cell-based, human; settings: positive control at 100 μM, LPS 1 μg/ml for 2 hours
# [3] = test system: TNFα release from differentiated THP-1 monocytes; assay: ELISA test (Test 1), release of TNFα into culture medium; assay type: cell-based, human; settings: positive control at 100 μM, LPS 1 μg/ml for 2 hours
Structure (SMILES),frequency of contractions per unit time (contractions per minute) [1],toxic effect on the cells (MTT test) (THP-1 cells),release of IL-1β [2],release of TNFα relative to vehicle/control [3]
"COc1c(O[C@@H]2O[C@H](CO)[C@@H](O)[C@H](O)[C@H]2O)cc2c(c1OC)-c1ccc(SC)c(=O)cc1[C@@H](NC(C)=O)CC2 [Muscoril, thiocolchicoside]",clear tendency,,,
O=C(O)Cc1ccccc1Nc1c(Cl)cccc1Cl [diclofenac],,no toxic effect on the cells,effective in reducing the release of IL-1β,significantly reduced the release of TNFα
CC(C)Cc1ccc(C(C)C(=O)O)cc1 (stereo not drawn) [ibuprofen],,,no effect on the release of IL-1β,did not lead to any reduction in the release of TNFα

# — patent US10583120B2, “Composition having a muscle-relaxant and anti-inflammatory activity” (Kolinpharma S.p.A., priority 2014, dated 2020)
